Experimental data: ChEMBL document CHEMBL1201862, “PubChem BioAssay data set” (2004)
Activity calls are given as the source filed them.

Experiments:
[1] = target: Intestinal-type alkaline phosphatase (Mus musculus, UniProt P24822); assay: PubChem AID 488785; type: functional
[2] = target: T1, Alkaline phosphatase, tissue-nonspecific isozyme (Homo sapiens, UniProt P05186); assay: TNAP enzyme inhibition by screening hits, dose response, selectivity assay for mouse IAP inhibitor project, biochemical, human TNAP, uHTS hits (AID 488906); type: functional
T1 sequence (P05186 whole entry): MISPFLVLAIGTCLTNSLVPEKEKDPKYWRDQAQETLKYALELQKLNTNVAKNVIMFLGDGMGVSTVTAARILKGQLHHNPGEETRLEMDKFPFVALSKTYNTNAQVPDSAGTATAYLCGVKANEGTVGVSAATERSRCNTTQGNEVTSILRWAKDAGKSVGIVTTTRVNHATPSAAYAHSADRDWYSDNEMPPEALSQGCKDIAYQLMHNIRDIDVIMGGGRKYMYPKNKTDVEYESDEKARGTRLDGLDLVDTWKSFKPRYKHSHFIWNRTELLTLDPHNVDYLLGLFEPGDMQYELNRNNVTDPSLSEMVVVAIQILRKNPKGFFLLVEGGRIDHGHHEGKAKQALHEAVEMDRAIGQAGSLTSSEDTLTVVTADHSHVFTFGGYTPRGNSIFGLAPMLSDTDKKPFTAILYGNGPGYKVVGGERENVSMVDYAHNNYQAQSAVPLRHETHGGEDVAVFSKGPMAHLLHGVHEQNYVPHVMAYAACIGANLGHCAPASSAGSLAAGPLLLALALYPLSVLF

[3] = target: Intestinal-type alkaline phosphatase (Homo sapiens, UniProt P09923); assay: inhibition of human intestinal alkaline phosphatase – biochemical, dose response (AID 488876); type: functional
Chain of Intestinal-type alkaline phosphatase (Homo sapiens, UniProt P09923) (P09923 whole entry): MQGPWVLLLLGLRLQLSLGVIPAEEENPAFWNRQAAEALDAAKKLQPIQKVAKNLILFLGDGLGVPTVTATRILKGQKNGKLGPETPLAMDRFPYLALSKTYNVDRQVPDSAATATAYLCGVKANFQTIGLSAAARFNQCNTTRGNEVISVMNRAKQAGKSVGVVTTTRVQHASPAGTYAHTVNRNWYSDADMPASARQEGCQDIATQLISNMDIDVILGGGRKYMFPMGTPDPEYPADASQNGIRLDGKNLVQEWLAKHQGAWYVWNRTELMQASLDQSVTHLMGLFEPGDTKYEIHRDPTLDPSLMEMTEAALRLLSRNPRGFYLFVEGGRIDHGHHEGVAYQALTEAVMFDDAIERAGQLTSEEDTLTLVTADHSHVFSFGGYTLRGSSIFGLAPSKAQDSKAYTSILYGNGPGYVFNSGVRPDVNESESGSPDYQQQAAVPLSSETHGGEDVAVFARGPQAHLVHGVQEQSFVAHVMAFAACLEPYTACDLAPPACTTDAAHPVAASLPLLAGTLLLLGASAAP

[4] = target: Peroxisome proliferator-activated receptor gamma/Nuclear receptor coactivator 1 (Homo sapiens, UniProt P37231); assay: (§1) TR-FRET dose response biochemical High Throughput Screening assay for agonists of the steroid receptor coactivator 1 (SRC-1) recruitment by the peroxisome proliferator-activated receptor gamma (PPAR gamma): non-selective agonists. [Related pubchem assays (depositor defined):AID1300, AID1808, AID504735, AID631]; type: protein assay
Chain of Peroxisome proliferator-activated receptor gamma/Nuclear receptor coactivator 1 (P37231 whole entry): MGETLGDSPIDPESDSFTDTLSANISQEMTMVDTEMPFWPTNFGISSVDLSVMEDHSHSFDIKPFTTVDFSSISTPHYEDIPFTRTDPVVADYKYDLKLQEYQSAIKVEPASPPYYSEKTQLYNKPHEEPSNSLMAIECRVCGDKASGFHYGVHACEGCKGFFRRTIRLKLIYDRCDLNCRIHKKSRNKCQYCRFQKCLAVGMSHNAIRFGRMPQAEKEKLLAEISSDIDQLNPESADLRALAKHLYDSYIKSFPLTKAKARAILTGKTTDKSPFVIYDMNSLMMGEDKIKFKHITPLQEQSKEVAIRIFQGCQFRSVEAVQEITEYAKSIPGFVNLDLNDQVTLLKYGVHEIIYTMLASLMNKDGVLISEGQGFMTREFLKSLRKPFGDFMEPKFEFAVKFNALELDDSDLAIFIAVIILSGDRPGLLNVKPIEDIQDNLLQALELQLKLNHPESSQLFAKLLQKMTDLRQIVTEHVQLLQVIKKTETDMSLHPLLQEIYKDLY
Chain of Peroxisome proliferator-activated receptor gamma/Nuclear receptor coactivator 1 (Q15788 whole entry, further chain): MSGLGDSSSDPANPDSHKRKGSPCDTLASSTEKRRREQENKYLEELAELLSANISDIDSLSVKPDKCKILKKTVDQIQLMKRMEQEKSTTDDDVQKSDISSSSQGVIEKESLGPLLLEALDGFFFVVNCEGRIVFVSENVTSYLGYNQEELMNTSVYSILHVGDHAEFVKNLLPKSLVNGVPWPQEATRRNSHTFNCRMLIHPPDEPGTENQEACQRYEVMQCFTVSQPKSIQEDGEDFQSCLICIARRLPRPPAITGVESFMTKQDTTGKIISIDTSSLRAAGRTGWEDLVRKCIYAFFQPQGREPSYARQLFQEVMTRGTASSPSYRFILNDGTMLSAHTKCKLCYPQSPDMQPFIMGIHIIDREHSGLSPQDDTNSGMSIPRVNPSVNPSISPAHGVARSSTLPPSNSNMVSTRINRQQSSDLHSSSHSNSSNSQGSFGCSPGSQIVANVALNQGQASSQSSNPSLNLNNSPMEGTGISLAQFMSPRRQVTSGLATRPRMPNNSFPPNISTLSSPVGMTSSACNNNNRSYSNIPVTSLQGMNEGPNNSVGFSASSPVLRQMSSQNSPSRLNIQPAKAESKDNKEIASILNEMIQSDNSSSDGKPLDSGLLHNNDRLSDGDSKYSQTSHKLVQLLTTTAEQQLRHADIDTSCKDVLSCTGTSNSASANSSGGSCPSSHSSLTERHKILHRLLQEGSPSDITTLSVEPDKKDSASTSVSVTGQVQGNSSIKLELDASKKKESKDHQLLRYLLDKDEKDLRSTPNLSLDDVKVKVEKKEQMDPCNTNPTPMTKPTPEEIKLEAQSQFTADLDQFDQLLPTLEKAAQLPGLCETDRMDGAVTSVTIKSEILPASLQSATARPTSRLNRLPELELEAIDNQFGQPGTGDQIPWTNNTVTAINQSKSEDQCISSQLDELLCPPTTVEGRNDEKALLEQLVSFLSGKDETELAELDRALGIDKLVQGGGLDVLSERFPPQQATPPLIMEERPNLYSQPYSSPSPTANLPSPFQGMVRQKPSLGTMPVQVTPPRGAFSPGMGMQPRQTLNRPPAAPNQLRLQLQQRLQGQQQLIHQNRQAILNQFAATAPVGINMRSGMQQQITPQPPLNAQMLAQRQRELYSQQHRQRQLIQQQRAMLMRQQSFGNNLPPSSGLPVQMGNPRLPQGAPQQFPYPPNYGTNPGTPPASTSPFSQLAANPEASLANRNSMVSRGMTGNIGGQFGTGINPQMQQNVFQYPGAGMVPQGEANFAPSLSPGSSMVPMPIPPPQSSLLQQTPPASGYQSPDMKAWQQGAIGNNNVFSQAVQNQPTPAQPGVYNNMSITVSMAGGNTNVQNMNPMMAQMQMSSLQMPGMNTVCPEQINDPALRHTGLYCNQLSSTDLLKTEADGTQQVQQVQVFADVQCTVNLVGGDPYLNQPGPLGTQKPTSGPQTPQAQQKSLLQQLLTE

HeLa = assay: Cytotoxicity counterscreen assay for transcriptional activators of heat shock protein 70 (Hsp70). [Related pubchem assays: 1203, 1252 ]; type: functional; conditions: Homo sapiens
[5] = target: Peroxisome proliferator-activated receptor gamma/Nuclear receptor coactivator 3 (Homo sapiens, UniProt P37231); assay: as §1, with “3 (SRC-3)” for “1 (SRC-1)”, “assays: 1301 (Confirmation screen.), 1048 (Primary screen.)]” for “assays (depositor defined):AID1300, AID1808, AID504735, AID631]”; type: functional
[6] = target: Peroxisome proliferator-activated receptor gamma/Nuclear receptor coactivator 2 (Homo sapiens, UniProt P37231); assay: TR-FRET dose response biochemical High Throughput Screening assay for agonists of the steroid receptor coactivator 2 (SRC-2) recruitment by the peroxisome proliferator-activated receptor gamma (PPAR gamma): non-selective agonists. [Related pubchem assays: 1297, 1032 ]; type: functional
Chain of Peroxisome proliferator-activated receptor gamma/Nuclear receptor coactivator 2 (P37231 whole entry): as the sequence (P37231 whole entry) above
Chain of Peroxisome proliferator-activated receptor gamma/Nuclear receptor coactivator 2 (Q15596 whole entry, further chain): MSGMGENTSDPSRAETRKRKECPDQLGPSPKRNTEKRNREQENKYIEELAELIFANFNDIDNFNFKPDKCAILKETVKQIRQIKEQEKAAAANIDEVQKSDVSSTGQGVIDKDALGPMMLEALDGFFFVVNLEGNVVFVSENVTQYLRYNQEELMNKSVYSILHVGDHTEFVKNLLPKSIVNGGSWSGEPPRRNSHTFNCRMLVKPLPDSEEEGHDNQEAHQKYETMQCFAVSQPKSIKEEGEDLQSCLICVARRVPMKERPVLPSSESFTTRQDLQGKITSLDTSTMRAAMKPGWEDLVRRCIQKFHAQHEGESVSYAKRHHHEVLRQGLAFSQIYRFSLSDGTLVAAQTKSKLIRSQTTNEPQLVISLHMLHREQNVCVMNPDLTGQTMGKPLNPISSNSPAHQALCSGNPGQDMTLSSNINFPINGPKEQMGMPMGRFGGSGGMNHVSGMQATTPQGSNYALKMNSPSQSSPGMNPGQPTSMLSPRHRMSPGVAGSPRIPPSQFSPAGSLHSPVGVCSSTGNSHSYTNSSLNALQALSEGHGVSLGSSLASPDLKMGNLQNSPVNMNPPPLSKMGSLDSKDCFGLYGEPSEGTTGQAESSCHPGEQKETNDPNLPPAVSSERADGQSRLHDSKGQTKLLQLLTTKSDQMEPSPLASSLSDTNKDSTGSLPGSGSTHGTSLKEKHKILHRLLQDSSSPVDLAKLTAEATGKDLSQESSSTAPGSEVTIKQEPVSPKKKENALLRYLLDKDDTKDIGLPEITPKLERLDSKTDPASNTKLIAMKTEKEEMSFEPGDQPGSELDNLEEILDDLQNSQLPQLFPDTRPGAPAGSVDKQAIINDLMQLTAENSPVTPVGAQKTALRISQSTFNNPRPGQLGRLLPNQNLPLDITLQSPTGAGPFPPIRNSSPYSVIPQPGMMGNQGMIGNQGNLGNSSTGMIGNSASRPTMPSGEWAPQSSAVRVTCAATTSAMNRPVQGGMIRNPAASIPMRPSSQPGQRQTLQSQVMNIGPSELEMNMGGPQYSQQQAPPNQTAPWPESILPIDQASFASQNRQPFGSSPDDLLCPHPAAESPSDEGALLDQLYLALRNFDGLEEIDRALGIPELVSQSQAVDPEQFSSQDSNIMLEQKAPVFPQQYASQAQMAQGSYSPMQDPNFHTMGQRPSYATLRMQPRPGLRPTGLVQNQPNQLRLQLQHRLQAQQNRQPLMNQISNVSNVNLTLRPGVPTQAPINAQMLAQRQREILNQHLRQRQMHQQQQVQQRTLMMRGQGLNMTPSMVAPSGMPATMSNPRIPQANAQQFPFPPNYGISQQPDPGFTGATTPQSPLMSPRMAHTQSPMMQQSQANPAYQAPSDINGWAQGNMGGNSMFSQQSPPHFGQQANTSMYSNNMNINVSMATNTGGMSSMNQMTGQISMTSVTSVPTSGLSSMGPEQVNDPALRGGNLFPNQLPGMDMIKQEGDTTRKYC

[7] = reduction of Shn3 3'UTR-driven luciferase in osteoblasts – cell-based, Clone20 osteoblasts, firefly luciferase, cherry-picked, dose response (AID 624132); type: functional;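 further: firefly luciferase luminescence from reporter carrying the Shn3 3'UTR in osteoblasts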
[8] = loss of viability in HepG2 cells – cell-based, CellTiter-Glo, cherry-picked, cytotoxicity control for Shn3 inhibitor project, dose response (AID 624134); type: functional
[9] = non-specific 3'UTR reporter inhibition in Clone20-Shn3RL – cell-based, Renilla luciferase, cherry-picked, counter-screen for Shn3 inhibitor project, dose response (AID 624133); type: functional
Paired box protein Pax-8 = Paired box protein Pax-8 (Homo sapiens, UniProt Q06710); assay: PAX8 transcriptional activity inhibition in RMG-I – RMG-I cells, luciferase, cherry-pick, dose response (AID 687027); type: functional, cell-based;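 further: luciferase reporter driven by Pax8 target thyroperoxidase promoter measured by SteadyGlo luminescence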
[10] = general cell-killing toxicity readout – plate reader, dry powder samples, cytotoxicity control for PAX8 inhibitor project, dose response (AID 743021); type: functional, cell-based
[11] = viability of PTEN-deleted HCT116 cells – cell-based, HCT116 PTEN knockout, dose response (AID 1047); type: functional;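 further: HCT116 colon tumor cells with PTEN knocked out; cells exposed to compound for 60 hours before readout; potency for loss of cell viability measured by luminescence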
[12] = viability of HCT116 lacking mutant beta-catenin – cell-based, human colon tumor, dose response (AID 1045); type: functional;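 further: HCT116 colon tumor cells with beta catenin knocked out; cells exposed to compound for 60 hours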
[13] = target: T2, Microphthalmia-associated transcription factor (Homo sapiens, UniProt O75030); assay: reducers of TRPM1 reporter luminescence, concentration series – cell-based, SK-MEL-5, cherry-picked, set 3, MITF inhibitor project, dose response (AID 493073); type: functional;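 further: SK-MEL-5 melanoma cells with luciferase driven by the MITF target TRPM1 promoter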
T2 sequence (O75030 whole entry): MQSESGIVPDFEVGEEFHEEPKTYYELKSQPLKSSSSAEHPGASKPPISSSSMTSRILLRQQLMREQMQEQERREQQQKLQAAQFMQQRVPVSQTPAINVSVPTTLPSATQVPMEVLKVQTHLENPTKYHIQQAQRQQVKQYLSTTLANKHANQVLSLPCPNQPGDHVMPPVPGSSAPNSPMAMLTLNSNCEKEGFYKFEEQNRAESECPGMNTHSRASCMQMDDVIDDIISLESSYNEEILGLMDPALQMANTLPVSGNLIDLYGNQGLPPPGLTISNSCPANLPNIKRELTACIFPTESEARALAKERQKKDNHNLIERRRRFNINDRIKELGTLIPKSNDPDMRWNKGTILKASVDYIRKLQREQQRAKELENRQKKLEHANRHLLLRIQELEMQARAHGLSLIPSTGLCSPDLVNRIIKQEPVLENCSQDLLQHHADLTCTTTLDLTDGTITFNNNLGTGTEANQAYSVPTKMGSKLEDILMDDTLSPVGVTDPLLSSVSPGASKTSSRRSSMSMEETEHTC

A-375 = assay: MITF: Counter assay: A375 proliferation Measured in Cell-Based System Using Plate Reader - 2084-03_Inhibitor_Dose_DryPowder_Activity. [Related pubchem assays (depositor defined):AID488944]; type: functional; conditions: Homo sapiens
[14] = test system: Streptococcus sp. 'group A'; assay: Streptococcus pyogenes SK(-)GAS viability under kanamycin – luminescence, BacTiterGlo, confirmation, counter-screen for streptokinase expression inhibitor project, dose response (AID 1900); type: functional, organism-based
Streptokinase A = target: T3, Streptokinase A (Streptococcus pyogenes serotype M1, UniProt P10520); assay: viability-normalized secreted streptokinase activity reduction – plasminogen activation absorbance, OD405, dose response (AID 1914); type: functional, Streptococcus pyogenes M1 GAS;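 further: secreted streptokinase activity via plasminogen activation per viability signal from cell pellet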
T3 sequence (P10520 whole entry): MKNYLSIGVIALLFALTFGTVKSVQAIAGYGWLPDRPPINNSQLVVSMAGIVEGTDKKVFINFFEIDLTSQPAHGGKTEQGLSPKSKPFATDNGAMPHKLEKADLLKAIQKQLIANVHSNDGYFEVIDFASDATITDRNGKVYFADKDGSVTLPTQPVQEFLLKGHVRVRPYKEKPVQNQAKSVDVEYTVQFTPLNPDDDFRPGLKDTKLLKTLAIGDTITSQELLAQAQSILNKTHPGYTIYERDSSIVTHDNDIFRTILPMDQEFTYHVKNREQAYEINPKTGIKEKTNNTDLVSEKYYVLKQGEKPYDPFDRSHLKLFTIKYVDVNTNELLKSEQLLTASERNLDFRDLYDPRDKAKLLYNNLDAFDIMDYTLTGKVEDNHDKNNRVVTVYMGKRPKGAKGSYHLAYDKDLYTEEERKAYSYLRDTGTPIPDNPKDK

Streptococcus = assay: GAS UMAA2166 growth inhibition – luminescence, BacTiterGlo, counter-screen for streptokinase expression inhibitor project, dose response (AID 1915); type: functional, organism-based;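 further: potency for reduction of bacterial viability or growth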
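Wherever CC50 is given: cells exposed to compound for 16 hours before readout.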

Chain of Intestinal-type alkaline phosphatase (Mus musculus, UniProt P24822) (P24822 whole entry): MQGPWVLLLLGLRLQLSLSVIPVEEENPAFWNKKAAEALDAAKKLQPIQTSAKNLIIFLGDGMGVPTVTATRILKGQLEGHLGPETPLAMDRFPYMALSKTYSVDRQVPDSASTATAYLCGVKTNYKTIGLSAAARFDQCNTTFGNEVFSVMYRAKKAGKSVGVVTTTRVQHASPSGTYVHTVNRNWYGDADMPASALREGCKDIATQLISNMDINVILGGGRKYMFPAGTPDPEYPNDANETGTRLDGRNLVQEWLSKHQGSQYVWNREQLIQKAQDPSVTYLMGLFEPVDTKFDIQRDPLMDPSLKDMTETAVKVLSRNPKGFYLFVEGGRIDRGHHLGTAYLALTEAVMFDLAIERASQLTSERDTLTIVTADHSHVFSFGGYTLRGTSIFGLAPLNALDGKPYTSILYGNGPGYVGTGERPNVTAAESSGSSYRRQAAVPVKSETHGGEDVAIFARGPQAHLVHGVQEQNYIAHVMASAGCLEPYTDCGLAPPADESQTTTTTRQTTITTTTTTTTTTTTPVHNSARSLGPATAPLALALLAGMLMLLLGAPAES

## O=S(=O)(c1ccc2nc(O)oc2c1)N1CCCCC1
[1]
  IC50: 1.67 µM (active)
[2]
  IC50: 36.5 µM (active)
[3]
  IC50: > 100 µM (inactive)

## O=c1c(Br)c(Br)cnn1-c1ccccc1
[4]
  EC50: > 79.4 µM (inactive)
HeLa
  CC50: > 11 µM (not active)
[5]
  EC50: > 79.4 µM (not active)
[6]
  EC50: > 79.4 µM (not active)
[7]
  AC50: 1.82 µM (active)
[8]
  AC50: 25.4 µM (active)
[9]
  AC50: 2.75 µM (active)
Paired box protein Pax-8
  AC50: 8.26 µM (active)
[10]
  AC50: 14.8 µM (active)

## COc1ccc(C(CCNC(C)c2ccccc2)c2ccc(F)cc2)cc1 (configuration not stated)
[11]
  EC50: 11.2 µM (active)
[12]
  EC50: 9.11 µM (active)
[13]
  AC50: 16.6 µM (active)
A-375
  AC50: 13.8 µM (active)

## Cc1ccc(CN=C(S)NC2CCC(C(C)(C)C)CC2)cc1 (configuration not stated)
[14]
  EC50: 5.46 µM (active)
Streptokinase A
  EC50: 13.1 µM (active)
Streptococcus
  EC50: > 150 µM (not active)
[1]
  IC50: 2.35 µM (active)
[2]
  IC50: 48 µM (active)
[3]
  IC50: > 100 µM (inactive)
